Residues, ends and D or L forms follow the SMILES beside them. *: point of attachment. Boc = CC(C)(C)OC(=O)*
Assays:
Format in all cases: biochemical
human urokinase = biological target: T1, human urokinase (Homo sapiens, UniProt P00749); assay: Urokinase assay (S-2444 substrate)
T1 construct: 50 μL of 270 U/mL human urokinase
Method: (§1) The specificity of the peptide aldehydes (8 through 12) was determined in vitro by measurement of their IC50 against other enzymes involved in hemostasis. A specific concentration of enzyme and its substrate were challenged with varying concentrations of inhibitor. IC50 is that concentration of inhibitor giving 50% inhibition of substrate turnover, under the assay conditions. Specific assay procedures used are presented below.
(§2) 96-well microtiter plates were prepared for use in these assays by incubating each well with 300 μL 1% bovine serum albumin (in deionized water) for 30 minutes at 37° C., then washing three times with deionized water.
Enzyme activity was determined using as substrate S-2444 [L-pyroglutamyl-L-glycyl-L-arginine-p-nitroanilide hydrochloride], purchased from Kabi Diagnostica. The substrate was made up in deionized water prior to use.
The assay was run by combining in appropriate wells 50 μL inhibitor in TBS or TBS alone and 50 μL of 270 U/mL human urokinase (or TBS as background control) and 50 μL TBS, incubating this mixture for 30 minutes at room temperature, adding 50 μL 1 mM S-2444, incubating for an additional 30 minutes at room temperature, then reading the absorbance of the wells at 405 nm on a microtiter plate reader set with background substraction at 650 nm.

human Factor Xa = biological target: T2, human Factor Xa (Homo sapiens, UniProt P00742); assay: Factor Xa assay (Pefachrome Xa substrate)
T2 construct: 50 μL 30 nM human Factor Xa
T2 sequence (P00742 235-488 limits assumed): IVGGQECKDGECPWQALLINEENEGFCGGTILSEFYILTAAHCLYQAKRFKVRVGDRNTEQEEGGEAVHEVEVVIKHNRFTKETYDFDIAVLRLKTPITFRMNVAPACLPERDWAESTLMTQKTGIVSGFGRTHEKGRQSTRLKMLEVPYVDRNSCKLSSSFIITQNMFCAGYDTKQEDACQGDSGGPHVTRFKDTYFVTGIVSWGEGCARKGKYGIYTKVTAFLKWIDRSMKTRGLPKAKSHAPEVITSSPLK
T2 sequence (P00742 41-179 partner limits assumed): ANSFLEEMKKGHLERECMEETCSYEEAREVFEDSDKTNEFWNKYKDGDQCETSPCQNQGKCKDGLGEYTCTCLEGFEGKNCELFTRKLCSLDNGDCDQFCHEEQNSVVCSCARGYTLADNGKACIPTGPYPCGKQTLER
Method: as §1, with “IC50 is that concentration of inhibitor giving 50% inhibition of substrate turnover, under the assay conditions.” left out
as §2
Enzyme activity was determined using as substrate, Pefachrome Xa [N-methoxycarbonyl-D-cyclohexylalanyl-L-glycyl-L-arginine p-niroanilide acetate], purchased from Centerchem, Inc. The substrate was made up in deionized water prior to use.

[1] = biological target: bovine and human pancreatic trypsin; assay: Potency: determination of inhibitor constant Ki against trypsin (S-2222 substrate, Dixon plot); conditions: 37° C., TBS pH 7.4, 15 min preincubation, read-out: Ki For Peptide Aldehydes Against Trypsin
Method: The potency and specificity of the compounds of the present invention are determined by in vitro assay methods well known in the art. […] Specifically, the inhibitor constant, Ki, of the compounds can be determined by the method of Dixon, Biochem. J. 55:170 (1953). The specificity is assessed by determination of the concentration, IC50, of compound required to give 50% inhibition of the enzymatic activity of the coagulation enzymes, kallikrein, factor XIa, factor VIIa, factor Xa, thrombin; the fibrinolysis enzymes, plasmin, tissue plasminogen activator (tPA), and urokinase (UK), and the anticoagulation enzyme, protein C. Specificity is found when the concentration of compound giving 50% inhibition of trypsin is low relative to the concentration required to give like inhibition of the other enzymes.
Enzyme activity was determined using as substrate S-2222 [N-benzoyl-L-isoleucyl-L-glutamyl-glycyl-L-arginine-p-nitroanilide hydrochloride where glutamyl side chain is 50% carboxylic acid and 50% methyl ester], purchased from Kabi Diagnostica. The substrate was made up in deionized water prior to use.
A 96-well microtiter plate was prepared for use in the assay by incubating each well with 300 μL of 1% bovine serum albumin (in deionized water) for 30 minutes at 37° C., and washing three times with deionized water.
To each well was added 50 μL TBS (0.1M Tris, 0.14M NaCl, pH 7.4), 50 μL 2.5 nM trypsin and 50 μL peptide aldehyde in TBS or TBS alone. After incubating for 15 minutes at 37° C., 50 μL of S-2222 (at 37° C.) at a specified concentration was added to each well. After mixing, the rate of substramte turnover at 37° C. was measured for 30 minutes at 405 nm (generation of p-nitroaniline). The initial S-2222 concentrations in the assay mixture were 0.45, 0.23, 0.11, 0.056, and 0.028 mM.
Ki was determined graphically using a Dixon plot, as described in Dixon, Biochem. J. 55:170 (1953).

human Factor XIa = biological target: T3, human Factor XIa (Homo sapiens, UniProt P03951); assay: Factor XIa assay (S-2366 substrate)
T3 construct: 50 μL of 5 nM human Factor XIa
T3 sequence (P03951 388-625 limits assumed): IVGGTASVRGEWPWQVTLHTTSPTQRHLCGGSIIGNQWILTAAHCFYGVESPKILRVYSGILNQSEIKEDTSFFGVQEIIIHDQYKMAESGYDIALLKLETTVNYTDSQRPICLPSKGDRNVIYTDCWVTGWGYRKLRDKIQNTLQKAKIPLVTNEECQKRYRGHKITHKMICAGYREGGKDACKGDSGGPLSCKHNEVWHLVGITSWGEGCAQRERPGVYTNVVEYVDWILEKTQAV
T3 sequence (P03951 19-387 partner limits assumed): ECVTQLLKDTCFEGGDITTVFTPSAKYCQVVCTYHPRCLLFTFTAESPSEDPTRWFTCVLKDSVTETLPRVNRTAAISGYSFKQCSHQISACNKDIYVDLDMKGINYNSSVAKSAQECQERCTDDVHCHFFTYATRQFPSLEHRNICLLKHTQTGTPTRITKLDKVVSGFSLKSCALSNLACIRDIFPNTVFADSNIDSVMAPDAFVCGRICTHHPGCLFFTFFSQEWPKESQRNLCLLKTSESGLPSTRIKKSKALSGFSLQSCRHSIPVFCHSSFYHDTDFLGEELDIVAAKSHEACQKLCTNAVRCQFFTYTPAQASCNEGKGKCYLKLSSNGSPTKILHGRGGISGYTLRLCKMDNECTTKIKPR
Method: as §1, with “IC50 is that concentration of inhibitor giving 50% inhibition of substrate turnover, under the assay conditions.” left out
as §2
(§3) The substrate was made up in deionized water prior to use.

plasmin = plasmin (Homo sapiens, UniProt P00747); assay: Plasmin assay (S-2251 substrate); set-up: 50 μL 25 nM human plasmin
Sequence of plasmin (P00747 581-810 limits assumed): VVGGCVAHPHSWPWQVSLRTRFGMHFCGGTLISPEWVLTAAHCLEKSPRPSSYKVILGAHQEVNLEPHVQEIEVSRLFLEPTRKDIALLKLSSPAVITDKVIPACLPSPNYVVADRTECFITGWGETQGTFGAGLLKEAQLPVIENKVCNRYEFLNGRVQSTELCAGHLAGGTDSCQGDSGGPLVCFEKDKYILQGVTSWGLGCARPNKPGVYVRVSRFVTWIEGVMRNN
Sequence of plasmin (P00747 97-580 partner limits assumed): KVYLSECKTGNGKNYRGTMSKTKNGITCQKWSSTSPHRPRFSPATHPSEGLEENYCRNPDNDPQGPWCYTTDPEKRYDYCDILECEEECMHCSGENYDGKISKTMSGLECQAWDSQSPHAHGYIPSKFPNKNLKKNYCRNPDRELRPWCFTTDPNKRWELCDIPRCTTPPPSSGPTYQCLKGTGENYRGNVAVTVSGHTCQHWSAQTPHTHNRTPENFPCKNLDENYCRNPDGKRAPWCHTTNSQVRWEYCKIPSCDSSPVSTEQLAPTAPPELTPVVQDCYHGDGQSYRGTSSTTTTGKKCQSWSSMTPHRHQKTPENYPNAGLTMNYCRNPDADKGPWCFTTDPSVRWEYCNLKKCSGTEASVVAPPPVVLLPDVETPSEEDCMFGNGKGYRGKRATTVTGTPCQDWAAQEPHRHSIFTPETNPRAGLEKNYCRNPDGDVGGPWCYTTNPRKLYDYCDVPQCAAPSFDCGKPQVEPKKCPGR
Method: as §1, with “IC50 is that concentration of inhibitor giving 50% inhibition of substrate turnover, under the assay conditions.” left out
as §2, §3

[2] = 30 min preincubation, room temperature, tested 0.025-25 μM, Inact. = no inhibition at highest concentration
[3] = [IC50 for Trypsin/IC50 for other enzyme]×100, lower = more trypsin selective

IC50 (human urokinase; [2]): 25 µM | Calculated % Selectivity UK (human urokinase; [3]): 0.06% | IC50 (human Factor Xa; [2]): > 25 µM | Calculated % Selectivity Xa (human Factor Xa; [3]): < 0.06% | Ki [1]: 0.00045 µM | IC50 (human Factor XIa; [2]): 12 µM | Calculated % Selectivity XIa (human Factor XIa; [3]): 0.12% | IC50 (plasmin; [2]): 1.4 µM | Calculated % Selectivity Plasmin (plasmin; [3]): 1%
SMILES: CC(C)(C)OC(=O)N[C@@H](CC(=O)O)C(=O)N1CCC[C@H]1C(=O)N[C@H](C=O)CCCNC(=N)N [Compound 9, N-t-butyloxycarbonyl-L-Asp-L-Pro-L-argininal] (Boc-Asp-Pro-Arg-aldehyde)

Source: patent US5534498A, “Trypsin inhibitors” (Corvas International, Inc., priority 1993, dated 1996)
